Source: paper PMC11286589, “Population pharmacokinetics and exposure–response analyses of SAF-189s in Chinese patients with ALK+/ROS1+ non-small cell lung cancer” (Frontiers in Pharmacology, 2024)
Like-named read-outs stand apart in the source and are kept apart here.

Experiments:
[1] = tested on: tumor xenograft models derived from genetically engineered cells overexpressing ALK rearrangements, ROS1+ rearrangements, or crizotinib-resistant ALK and ROS1 …; design: method as in Xia et al., 2021; details: tumor xenograft and CNS tumor models; ref Xia et al., 2021; cited from earlier work
[2] = Exposure–safety analysis (logistic regression); type: in vivo, human; details: per increase in exposure (AUCss) of 1 ng∙h mL^–1 d^–1, all patients
Description: (§1) All studies were conducted in accordance with the Good Clinical Practice guidelines and Declaration of Helsinki. The protocols were approved by the independent ethics committee of each investigation site, and all subjects provided informed consent. The tumor responses were assessed by the IRC based on the Response Evaluation Criteria in Solid Tumors (RECIST) 1.1 conditions. The exposure–efficacy analyses of SAF-189s were conducted based on data from patients in the SAF001 study to explore the relationships between systemic exposure and efficacy endpoints, including the ORR, PFS, and duration of response (DOR). The exposure–safety analyses of SAF-189s were conducted based on data from patients in the SAF001 study to explore the relationships between the systemic exposure and safety endpoints, including the adverse events (AEs) of interest. In these studies, the SAF-189s plasma concentrations were analyzed using validated liquid chromatography tandem mass spectrometry within the assay range of 0.5–150 ng mL^–1.
The exposure–safety relationships were characterized using the exposure metrics to the first occurrence of an event. The AEs of interest selected for analysis included hyperglycemia and proteinuria. The individual post hoc PK parameters from the final PopPK model and the first dosage were used to calculate the Cmin,ss, Cmax,ss, and AUCss at steady state, which were used as the exposure metrics. The exposure–safety analysis was performed using a logistic regression modeling approach.

[3] = tested on: ALK+/ROS1+ advanced NSCLC; assay: Exposure–efficacy analysis (logistic regression, Cox regression, SFBE tumor model); type: in vivo, human; details: for Incidence CR: 61 patients
Description: as §1
The exposure–efficacy analysis entails evaluation of the relationships between the individual SAF-189s exposures and efficacy endpoints. These efficacy endpoints include the ORR, PFS, DOR, and tumor size. In Eq. 1, the Stein-Fojo biexponential (SFBE) model was used to characterize the tumor shrinkage (mean shrinkage rate, KS) and tumor growth inhibition (mean regrowth rate, KG) parameters to compute the sum of longest lesion diameters (SOD). SODij= It≤0×SOD0i×expKGi×tij+It>0×SOD0i×exp−KSi×tij+expKGi×tij−1+eij. (1)
The individual post hoc PK parameters from the final PopPK model and the most prevalent dosage were used to calculate Cmin,ss and AUCss at steady state. The exposure was assessed for its relationship with the ORR using a logistic regression model and with PFS/DOR using the Cox regression model. The individual model parameter estimates (KGi, KSi) were plotted versus Cmin, ss_i to explore the relationships between exposure and tumor growth.

[4] = previous NCA results, no reference given, cited from earlier work
[5] = no reference given, cited from earlier work
[6] = tested on: ALK+/ROS1+ advanced NSCLC; details: ref Yang et al., cited from earlier work; for ORR: phase II, 2022a
[7] = Cmin,ss quartile 1, 61 patients
[8] = Cmin,ss quartile 2, 61 patients
[9] = Cmin,ss quartile 3, 61 patients
[10] = Cmin,ss quartile 4, 61 patients
[11] = parameter Cmin,ss, 192 patients, p 0.251
[12] = parameter Cmin,ss, 244 patients, p 0.059
[13] = ROS1-naive patients, phase IIa, 2022b

In the case of `Cc1cc(Nc2ncc(Cl)c(Nc3ccccc3S(=O)(=O)C(C)C)n2)c2c(c1C1CCN(C)CC1)C[C@@H](C)O2` [SAF-189s], the antitumor effects [1] is given as “Strong antitumor effects”, the “OR for any-grade hyperglycemia” value ([2]; p < 0.001) is given as 3.521 and the “OR for grade ≥2 hyperglycemia” value ([2]; p < 0.001) is given as 7.662. For the same compound, the OR for proteinuria ([2]; p = 0.021) was 2.031, the “Incidence CR” value ([3]; Cmin,ss quartile 1 (18–60.7 ng mL^–1)) was 1 (1.64) N (%) and the “Incidence NE” value [3, 7] was 0 (0.00) N (%). For the same compound, the “Incidence PD” value [3, 7] was 3 (4.92) N (%), the “Incidence PR” value [3, 7] was 53 (86.89) N (%) and the “Incidence SD” value [3, 7] was 4 (6.56) N (%). For the same compound, the “Incidence CR” value ([3]; Cmin,ss quartile 2 (60.7–79 ng mL^–1)) was 0 (0.00) N (%), the “Incidence NE” value [3, 8] was 0 (0.00) N (%) and the “Incidence PD” value [3, 8] was 4 (6.56) N (%). For the same compound, the “Incidence PR” value [3, 8] was 44 (72.13) N (%), the “Incidence SD” value [3, 8] was 13 (21.31) N (%) and the “Incidence CR” value ([3]; Cmin,ss quartile 3 (79–108 ng mL^–1)) was 0 (0.00) N (%). For the same compound, the “Incidence NE” value [3, 9] was 0 (0.00) N (%), the “Incidence PD” value [3, 9] was 2 (3.28) N (%) and the “Incidence PR” value [3, 9] was 47 (77.05) N (%). The “Incidence SD” value [3, 9] was 12 (19.67) N (%), the “Incidence CR” value ([3]; Cmin,ss quartile 4 (108–182 ng mL^–1)) was 1 (1.64) N (%) and the “Incidence NE” value [3, 10] was 0 (0.00) N (%). For the same compound, the “Incidence PD” value [3, 10] was 3 (4.92) N (%), the “Incidence PR” value [3, 10] was 46 (75.41) N (%) and the “Incidence SD” value [3, 10] was 11 (18.03) N (%). For the same compound, the “odds ratio (OR), probability of achieving ORR vs Cmin,ss” value ([3]; logistic regression, all patients (n = 244), p = 0.084) was 0.556, the “Cox regression estimate, DOR” value [3, 11] was 0.0059 and the “Hazard ratio (95% CI), DOR” value [3, 11] was 1.006 (0.996–1.016). For the same compound, the “Cox regression estimate, PFS” value [3, 12] was 0.0071, the “Hazard ratio (95% CI), PFS” value [3, 12] was 1.007 (1.000–1.015) and the “tumor size after initiation of treatment” value ([3]; tumor growth inhibition (SFBE) model, most patients) was “decreased rapidly”. The “apparent clearance (CL/F)” value ([4]; after multiple doses at 20 mg once daily) was 132 L h^–1, the “apparent clearance (CL/F)” value ([4]; after multiple doses at 210 mg once daily) was 58.3 L h^–1 and the permeability ([5]; BCS classification) was “low permeability”. For the same compound, the solubility ([5]; BCS classification) was “low solubility”, the BCS class [5] was “BCS IV” and the “IRC-assessed ORR” value [6, 13] was 94.1%. For the same compound, the “median progression-free survival (PFS)” value [6, 13] was 16.5 months, the ORR ([6]; ALK+ patients with brain metastases) was 74.6% and the ORR ([6]; ALK-inhibitor-naive patients) was 92.3%. For the same compound, the ORR ([6]; crizotinib-pretreated group) was 65.4%, the ORR ([6]; overall ALK+ patients) was 78.7% and the “IRC-assessed ORR” value ([6]; phase IIb, ROS1-naive, brain metastases subgroup, 2022b) was 85.7%. For the same compound, the “IRC-assessed ORR” value ([6]; phase IIb, overall ROS1-naive patients, 2022b) was 80.4%.
